Tested on: HOP-62 multicell spheroids with HUVEC/MSC, viability
Experiment: Anticancer human tumor HOP-62 cell line growth inhibition [KRAS2];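 note: viability read after a week of compound exposure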;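 for viability, T/C: 100% = DMSO vehicle-treated spheroids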
Settings: for IC50: curve of first compound; for viability, T/C: stronger effect = lower value
Source text: Multicellular complex tumor spheroid response to RAS pathway inhibitors in combination with a targeted agents in patient-derived cell lines with oncogenic KRAS variants from multiple cancer types
A high-throughput screen of multi-cell type tumor spheroids was designed to identify active combinations of targeted small molecules and KRAS pathway inhibitors. Complex spheroids include a stromal component modeled by human endothelial cells (HUVEC) and fibroblasts modeled by human mesenchymal stem cells (MSCs). The concentration ranges selected for each drug and investigational agent were based upon clinically achievable concentrations if the clinical Cmax of the agent was known.
Compounds. The drugs and investigational agents: BI-3406 (NSC825286), BAY-293 (NSC824723), batoprotafib (TNO155; NSC825523), sotorasib (AMG 510; NSC818433), MRTX1257 (NSC819558), elimusertib (BAY 1895344; NSC800525), molibresib (GSK525762; NSC774829), temuterkib (LY3214996; NSC803410), venetoclax (NSC766270), alisertib (NSC759677), olaparib (NSC753686), talazoparib (NSC767125), erdafitinib (NSC781556), ipatasertib (NSC767898), cabozantinib (NSC761068), nintedanib (NSC756659), abemaciclib (NSC768073), docetaxel (NSC628503), trametinib (NSC758246), and sapanisertib (NSC764658) were obtained from the National Cancer Institute (NCI) Developmental Therapeutics Program Chemical Repository. The FDA-approved anticancer drug set is available from the Developmental Therapeutics Program. […] The stock solutions were prepared in dimethyl sulfoxide (DMSO, Sigma-Aldrich, St. Louis, MO, cat. D2650) at 800-fold the tested concentration and stored at -70 degrees C prior to their use. All drugs and investigational agents were tested over a range starting from a high concentration at or near the clinical Cmax and decreasing in half-log increments. If the clinical Cmax for an agent had not been determined, the highest concentration tested was 10 microM.
Cell Culture. All cells were maintained in an incubator at 37 degrees C and 5% CO2 with 95% humidity. The PDC lines were cultured according to standard operating procedures established by the NCI PDMR (https://pdmr.cancer.gov/sops/default.htm). Briefly, all PDCs were thawed and cultured in Matrigel-coated flasks prepared with a working solution of 1X Ham's F-12 nutrient mix, without supplementation (Invitrogen, Waltham, MA, cat. 11765054), 100 U/mL penicillin-streptomycin (Invitrogen, cat. 15140122), and 2.5% Matrigel (Corning Inc., Corning, NY, cat. 354248) for the first three passages. All PDCs were cultured in complete DMEM/F-12 media containing advanced DMEM/F-12 (Invitrogen, cat. 12634028), 4.9% defined fetal bovine serum, heat inactivated (HyClone Laboratories Inc., Logan, UT, cat. SH30070.03HI), 389 ng/mL hydrocortisone (Sigma-Aldrich, cat. H4001), 9.7 ng/mL human EGF recombinant protein (Invitrogen, cat. PHG0313), 23.4 microg/mL adenine (Sigma-Aldrich, cat. A2786), 97.3 U/mL penicillin-streptomycin (Invitrogen, cat. 15140122), 1.9 mM L-glutamine (Invitrogen, cat. 25030081), and 9.7 microM Y-27632 dihydrochloride (Tocris Bioscience, Bristol, United Kingdom, cat. 1254). The PDCs were cultured in complete DMEM/F12 media without 9.7 microM Y-27632 dihydrochloride for at least two passages prior to the screen. The established cell line HOP-62 was cultured in RPMI 1640 medium, HEPES (Invitrogen, cat. 22400105) with 10% defined fetal bovine serum (HyClone Laboratories Inc., cat. SH30070.03) and 2 mM L-glutamine (Invitrogen, cat. 25030081). The pooled donor HUVEC were cultured in endothelial cell growth medium 2 (PromoCell, Heidelberg, Germany, cat. C-22011) and the hMSC were cultured in mesenchymal stem cell growth medium 2 (PromoCell, cat. C-28009). For all experiments, HUVEC and hMSC were used at passages </=5, while the malignant cell lines were used at passages </=15. […]

[1] = second compound 0.1 µM, first compound 0.0316 µM
[2] = second compound 0.1 µM, first compound 0.1 µM
[3] = second compound 0.316 µM, first compound 0.0316 µM
[4] = second compound 0.316 µM, first compound 0.1 µM
[5] = second compound 1 µM, first compound 0.0316 µM
[6] = second compound 1 µM, first compound 0.1 µM
[7] = second compound 3.16 µM, first compound 0.0316 µM
[8] = second compound 3.16 µM, first compound 0.1 µM
[9] = second compound 10 µM, first compound 0.0316 µM
[10] = second compound 10 µM, first compound 0.1 µM
[11] = second compound 0.1 µM, first compound 0.316 µM
[12] = second compound 0.1 µM, first compound 1 µM
[13] = second compound 0.1 µM, first compound 3.16 µM
[14] = second compound 0.1 µM, first compound 10 µM
[15] = second compound 0.316 µM, first compound 0.316 µM
[16] = second compound 0.316 µM, first compound 1 µM
[17] = second compound 0.316 µM, first compound 3.16 µM
[18] = second compound 0.316 µM, first compound 10 µM
[19] = second compound 1 µM, first compound 0.316 µM
[20] = second compound 1 µM, first compound 1 µM
[21] = second compound 1 µM, first compound 3.16 µM
[22] = second compound 1 µM, first compound 10 µM
[23] = second compound 3.16 µM, first compound 0.316 µM
[24] = second compound 3.16 µM, first compound 1 µM
[25] = second compound 3.16 µM, first compound 3.16 µM
[26] = second compound 3.16 µM, first compound 10 µM
[27] = second compound 10 µM, first compound 0.316 µM
[28] = second compound 10 µM, first compound 1 µM
[29] = second compound 10 µM, first compound 3.16 µM
[30] = second compound 10 µM, first compound 10 µM

Row | SMILES | IC50 (second compound 0.1 µM) | IC50 (second compound 0.316 µM) | IC50 (second compound 1 µM) | IC50 (second compound 3.16 µM) | IC50 (second compound 10 µM) | viability, T/C [1] | viability, T/C [2] | viability, T/C [3] | viability, T/C [4] | viability, T/C [5] | viability, T/C [6] | viability, T/C [7] | viability, T/C [8] | viability, T/C [9] | viability, T/C [10] | viability, T/C [11] | viability, T/C [12] | viability, T/C [13] | viability, T/C [14] | viability, T/C [15] | other results
1 | CC(C)n1nc(-c2ccc3oc(N)nc3c2)c2c(N)ncnc21 + C=CC(=O)N1CCN(c2nc(=O)n(-c3c(C)ccnc3C(C)C)c3nc(-c4c(O)cccc4F)c(F)cc23)C(C)C1 | < 0.316 nM | 0.36 nM | 0.592 nM | 0.671 nM | < 0.316 nM | 10.2% | 8.15% | 11.4% | 8.53% | 11% | 8.43% | 12.4% | 8.73% | 11.8% | 9.42% |  |  |  |  |  | viability, T/C (second compound 0.1 µM, first compound 0.000316 µM): 42.3%; viability, T/C (second compound 0.1 µM, first compound 0.001 µM): 33.4%; viability, T/C (second compound 0.1 µM, first compound 0.00316 µM): 19.2%; viability, T/C (second compound 0.1 µM, first compound 0.01 µM): 15.4%; viability, T/C (second compound 0.316 µM, first compound 0.000316 µM): 51.1%; viability, T/C (second compound 0.316 µM, first compound 0.001 µM): 41%; viability, T/C (second compound 0.316 µM, first compound 0.00316 µM): 25.3%; viability, T/C (second compound 0.316 µM, first compound 0.01 µM): 14.2%; viability, T/C (second compound 1 µM, first compound 0.000316 µM): 62.8%; viability, T/C (second compound 1 µM, first compound 0.001 µM): 38.9%; viability, T/C (second compound 1 µM, first compound 0.00316 µM): 25.5%; viability, T/C (second compound 1 µM, first compound 0.01 µM): 15.3%; viability, T/C (second compound 3.16 µM, first compound 0.000316 µM): 60.2%; viability, T/C (second compound 3.16 µM, first compound 0.001 µM): 43.8%; viability, T/C (second compound 3.16 µM, first compound 0.00316 µM): 31.9%; viability, T/C (second compound 3.16 µM, first compound 0.01 µM): 18.6%; viability, T/C (second compound 10 µM, first compound 0.000316 µM): 36.9%; viability, T/C (second compound 10 µM, first compound 0.001 µM): 28.8%; viability, T/C (second compound 10 µM, first compound 0.00316 µM): 25%; viability, T/C (second compound 10 µM, first compound 0.01 µM): 16.2%
2 | CC1(C)CCC(CN2CCN(c3ccc(C(=O)NS(=O)(=O)c4ccc(NCC5CCOCC5)c([N+](=O)[O-])c4)c(Oc4cnc5[nH]ccc5c4)c3)CC2)=C(c2ccc(Cl)cc2)C1 + C=CC(=O)N1CCN(c2nc(=O)n(-c3c(C)ccnc3C(C)C)c3nc(-c4c(O)cccc4F)c(F)cc23)C(C)C1 | < 31.6 nM | 2160 nM | 2010 nM | 3670 nM | < 31.6 nM | 46.2% | 49.4% | 53.4% | 51.9% | 55% | 57.1% | 64.9% | 58.9% | 43.7% | 46.5% | 50.5% | 43.1% | 39.1% | 12.1% | 57.7% | viability, T/C [16]: 56.2%; viability, T/C [17]: 47.1%; viability, T/C [18]: 20.5%; viability, T/C [19]: 50.8%; viability, T/C [20]: 52.6%; viability, T/C [21]: 48%; viability, T/C [22]: 13%; viability, T/C [23]: 48.7%; viability, T/C [24]: 54.4%; viability, T/C [25]: 55.7%; viability, T/C [26]: 12.2%; viability, T/C [27]: 41.4%; viability, T/C [28]: 41.5%; viability, T/C [29]: 32%; viability, T/C [30]: 16.2%
3 | COc1cc2nccc(Oc3ccc(NC(=O)C4(C(=O)Nc5ccc(F)cc5)CC4)cc3)c2cc1OC + C=CC(=O)N1CCN(c2nc(=O)n(-c3c(C)ccnc3C(C)C)c3nc(-c4c(O)cccc4F)c(F)cc23)C(C)C1 | 1710 nM | 1460 nM | 2210 nM | 1470 nM | < 31.6 nM | 50.1% | 52.9% | 54.2% | 54.7% | 52.9% | 64.6% | 55.1% | 57.3% | 33% | 39.8% | 53.9% | 73.4% | 41.3% | 21.6% | 57.3% | viability, T/C [16]: 67.6%; viability, T/C [17]: 28.2%; viability, T/C [18]: 37.7%; viability, T/C [19]: 63.4%; viability, T/C [20]: 72.3%; viability, T/C [21]: 44%; viability, T/C [22]: 18.4%; viability, T/C [23]: 63.8%; viability, T/C [24]: 64.5%; viability, T/C [25]: 29.6%; viability, T/C [26]: 15.4%; viability, T/C [27]: 36.7%; viability, T/C [28]: 36%; viability, T/C [29]: 26.6%; viability, T/C [30]: 6.56%

— PubChem BioAssay AID1963858 (Molecular Pharmacology Branch, DTP, NCI, 2024)
